Reference: paper PMC6856409 (Journal of medicinal chemistry, 2019)

How the values were obtained:
[1] = test system: AIM2 inflammasome; test: AIM2 inflammasome selectivity assay, J774A.1 cells, LPS/poly; format: cell-based, murine; details: 10 μM compound, LPS (1 μg/mL) 1 h, poly(dA:dT) (4 μg/ml) 8 h
[2] = test system: NLRC4 inflammasome; test: NLRC4 inflammasome selectivity assay, J774A.1 cells, LPS/flagellin, IL-1β ELISA; format: cell-based, murine; details: 10 μM compound, LPS (1 μg/mL) 1 h, flagellin (1 μg/mL) 6 h
[3] = test system: NLRP3 inflammasome; test: IL-1β release from mouse peritoneal macrophages upon LPS/ATP challenge; format: cell-based
[4] = test system: hCMEC/D3 cells; test: Cytotoxicity on hCMEC/D3 cells; details: 20 μM, 2 h

SMILES | effect on IL-1β production by AIM2 inflammasome [1] | effect on IL-1β production by NLRC4 inflammasome [2] | inhibitory activity on IL-1β release [3] | cytotoxicity (cell viability) [4]
C#CCNS(=O)(=O)c1ccc(CCN(Cc2cc(Cl)ccc2OC)C(=O)C=C)cc1 [Compound 2, N-(5-chloro-2-methoxybenzyl)-N-(4-(N-(prop-2-yn-1-yl)sulfamoyl)phenethyl)acryl-amide] | significantly inhibited | significantly inhibited | confirmed | 
C#CCNS(=O)(=O)c1ccc(CCN(Cc2cc(Cl)ccc2OCCC)C(=O)Cc2ccsc2)cc1 [Compound 17, N-(5-chloro-2-propoxybenzyl)-N-(4-(N-(prop-2-yn-1-yl)sulfamoyl)phenethyl)-2-(thio-phen-3-yl)acetamide] | did not significantly interfere | did not significantly interfere |  | did not show significant toxic effects
